From BindingDB's records for PubMed 8394902 (Georgetown University, 1993) come the findings set out here.

Where “and” joins values, the source holds several entries; their conditions need not be identical. Equal entries are not always repeated.

The experiment addresses Gamma-aminobutyric acid receptor subunit alpha-1 (Rattus norvegicus, UniProt P62813).

Gamma-aminobutyric acid receptor subunit alpha-1, sequence (P62813 whole entry): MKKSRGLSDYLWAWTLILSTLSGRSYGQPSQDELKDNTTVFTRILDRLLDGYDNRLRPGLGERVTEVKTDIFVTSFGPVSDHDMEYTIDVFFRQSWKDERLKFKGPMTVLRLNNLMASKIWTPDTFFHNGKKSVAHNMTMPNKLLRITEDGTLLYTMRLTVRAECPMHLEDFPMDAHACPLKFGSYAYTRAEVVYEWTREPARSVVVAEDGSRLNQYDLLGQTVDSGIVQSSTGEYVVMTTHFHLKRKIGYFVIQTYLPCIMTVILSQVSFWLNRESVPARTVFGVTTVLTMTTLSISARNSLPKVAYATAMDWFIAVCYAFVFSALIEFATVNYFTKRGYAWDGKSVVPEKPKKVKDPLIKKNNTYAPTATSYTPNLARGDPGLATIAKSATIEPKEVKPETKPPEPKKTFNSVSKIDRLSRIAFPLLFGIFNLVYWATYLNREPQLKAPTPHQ

On to `Cc1nnc2n1-c1ccc(Cl)cc1C(c1ccccc1)=NC2`, for which the inhibition constant Ki was 21 nM and 65 nM.
